A word on the EC50: it is the concentration that produces a half-maximal response. The term Ki denotes the equilibrium dissociation constant of an inhibitor or competing ligand from its target.

The subject of assay [1] is zymostenol accumulation (EBP) in EpiSC-derived OPCs. Description: GC/MS-based sterol profiling, zymostenol accumulation in EpiSC-derived OPCs. The format is cell-based, mouse. The settings on record: Mus musculus, 24 h, EpiSC-derived OPCs, 24 hr, 8 doses from 0.15 nM to 333 nM; read-out: Mouse Zymostenol GCMS EC50. A digest of the protocol: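 Zymostenol level is expressed relative to that after 24 h with 100 nM positive-control reference, measured by full-scan GC/MS (m/z 458) with cholesterol-d7 internal standard after BSTFA derivatisation. Cells were EpiSC-derived OPCs, 100,000/well in N2B27 without growth factors, treated 24 h, from two or more independent platings.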

For a further assay, the system named is EpiSC-derived OPCs. Description: In vitro phenotypic screening of OPCs, MBP high-content imaging (percentage of oligodendrocytes). The format is cell-based, mouse. The settings on record: Mus musculus, 72 h, 3 days, MBP stain, dose-response 0.5 nM to 1000 nM; read-out: OPC EC50. A digest of the protocol:
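EC50 was fitted by Hill equation to the MBP-positive oligodendrocyte percentage from imaging of fixed, MBP- and DAPI-stained cells. Treatment lasted 3 days at 37 °C, final doses 0.5–1000 nM over 8 points, in growth factor-free N2B27. Cells were EpiSC-derived OPCs, tested in at least two independent platings.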

Assay [2] has as its target human emopamil binding protein and human 7-dehydrocholesterol reductase (hEBP-DHCR7) (Homo sapiens (Human), UniProt Q15125). The assay is described as follows: hEBP-DHCR7 radioligand binding assay (filter binding, membranes of co-expressing HEK293 cells). The settings on record: competition with [3H] radioligand, 8 doses 0.06 to 5000 nM, Ki calculated from IC50. A digest of the protocol:
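Compound, either single dose 1 μM or eight 5-fold dilutions from 0.06 to 5000 nM, competed with a [3H]-labelled ligand added at 25 nM for binding to co-expressing HEK293 membranes. IC50 came from nonlinear regression, with full block and DMSO as controls, then Cheng–Prusoff conversion to Ki.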

human emopamil binding protein and human 7-dehydrocholesterol reductase (hEBP-DHCR7), sequence (Q15125 whole entry): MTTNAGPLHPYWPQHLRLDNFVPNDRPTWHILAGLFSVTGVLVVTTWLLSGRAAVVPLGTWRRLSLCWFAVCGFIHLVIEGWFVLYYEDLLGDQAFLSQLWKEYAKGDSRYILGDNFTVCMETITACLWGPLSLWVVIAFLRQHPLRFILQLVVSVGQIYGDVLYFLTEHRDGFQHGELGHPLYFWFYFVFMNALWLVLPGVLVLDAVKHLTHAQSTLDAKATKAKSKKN

Take `CC(C)n1nc(-c2ccnc(C(F)(F)F)c2)cc1[C@H]1[C@@H]2C[C@H](N3CCOCC3)C[C@@H]21` [Compound 172, 4-((1R,3r,5S,6r)-6-(1-Isopropyl-3-(2-(trifluoromethyl)pyridin-4-yl)-1H-pyrazol-5-yl)bicyclo[3.1.0]hexan-3-yl)morpholine]: the figures for the EC50 (in assay [1]; in the assay on EpiSC-derived OPCs) were 4 nM and 8.27 nM, respectively. For the same compound, the Ki in assay [2] is 13.4 nM.

Consider `CC(C)n1nc(-c2ccc(C(F)(F)F)cc2)cc1[C@H]1[C@@H]2C[C@H](N3CCOCC3)C[C@@H]21` [Compound 173, 4-((1R,3r,5S,6r)-6-(1-Isopropyl-3-(4-(trifluoromethyl)phenyl)-1H-pyrazol-5-yl)bicyclo[3.1.0]hexan-3-yl)morpholine], for which the EC50 in assay [1] came out at 4 nM; in the assay on EpiSC-derived OPCs, 22.3 nM. Further, the Ki in assay [2] was 7.81 nM.

For the compound `CC(C)n1nc(-c2cccc(C(F)(F)F)c2)cc1[C@H]1[C@@H]2C[C@@H](N3CCCOCC3)C[C@@H]21` [Compound 175*, 4-((1R,3r,5S,6r)-6-(1-Isopropyl-3-(3-(trifluoromethyl)phenyl)-1H-pyrazol-5-yl)bicyclo[3.1.0]hexan-3-yl)-1,4-oxazepane], the EC50 in assay [1] is 5.46 nM; in the assay with EpiSC-derived OPCs, 11.3 nM. Moreover, in assay [2], the Ki was 14.2 nM.

In the case of `CC(C)n1nc(-c2cccc(C(F)(F)F)c2)cc1[C@H]1[C@@H]2C[C@H](N3CCCOCC3)C[C@@H]21` [Compound 176*, 4-((1R,3s,5S,6r)-6-(1-isopropyl-3-(3-(trifluoromethyl)phenyl)-1H-pyrazol-5-yl)bicyclo[3.1.0]hexan-3-yl)-1,4-oxazepane], the EC50 in assay [1] is 1.71 nM; in the assay with EpiSC-derived OPCs it was 1.82 nM. The Ki in assay [2] is 8.64 nM.

In the case of `CC(C)n1nc(-c2cncc(Cl)c2)cc1[C@H]1[C@@H]2C[C@@H](N3CCCOCC3)C[C@@H]21` [Compound 177*, 4-((1R,3s,5S,6r)-6-(3-(5-Chloropyridin-3-yl)-1-isopropyl-1H-pyrazol-5-yl)bicyclo[3.1.0]hexan-3-yl)-1,4-oxazepane], the EC50 in assay [1] turned out to be 4.16 nM; in the assay with EpiSC-derived OPCs it was 9.82 nM. For the same compound, in assay [2], the Ki is 15.5 nM.

Regarding `CC(C)n1nc(-c2cncc(Cl)c2)cc1[C@H]1[C@@H]2C[C@H](N3CCCOCC3)C[C@@H]21` [Compound 178*, 4-((1R,3r,5S,6r)-6-(3-(5-chloropyridin-3-yl)-1-isopropyl-1H-pyrazol-5-yl)bicyclo[3.1.0]hexan-3-yl)-1,4-oxazepane], the EC50 in assay [1] turned out to be 65.6 nM; with EpiSC-derived OPCs it was 555 nM. For the same compound, the Ki in assay [2] was 35.8 nM.

On to `CC(C)n1nc(-c2ccc(C#N)cc2)cc1[C@H]1[C@@H]2C[C@H](N3CCCOCC3)C[C@@H]21` [Compound 179*, 4-(5-((1R,3r,5S,6r)-3-(1,4-Oxazepan-4-yl)bicyclo[3.1.0]hexan-6-yl)-1-isopropyl-1H-pyrazol-3-yl)benzonitrile], for which the EC50 in assay [1] was determined as 0.952 nM; with EpiSC-derived OPCs, 26.4 nM. The Ki in assay [2] is 10.9 nM.

With `CC(C)n1nc(-c2ccc(C#N)cc2)cc1[C@H]1[C@@H]2C[C@@H](N3CCCOCC3)C[C@@H]21` [Compound 180*, 4-(5-((1R,3s,5S,6r)-3-(1,4-oxazepan-4-yl)bicyclo[3.1.0]hexan-6-yl)-1-isopropyl-1H-pyrazol-3-yl)benzonitrile], the figures for the EC50 (in assay [1]; in the assay on EpiSC-derived OPCs) were 24.5 nM and 124 nM, respectively. Further, the Ki in assay [2] was 30.6 nM.

With `CC(C)n1nc(-c2ccc(C(F)(F)F)cc2)cc1[C@H]1[C@@H]2C[C@H](N3CCCOCC3)C[C@@H]21` [Compound 181*, 4-((1R,3r,5S,6r)-6-(1-Isopropyl-3-(4-(trifluoromethyl)phenyl)-1H-pyrazol-5-yl)bicyclo[3.1.0]hexan-3-yl)-1,4-oxazepane], the EC50 in assay [1] was 7 nM; in the assay on EpiSC-derived OPCs it was 12.4 nM. Besides, the Ki in assay [2] is 10.1 nM.

With `CC(C)n1nc(-c2ccc(C(F)(F)F)cc2)cc1[C@H]1[C@@H]2C[C@@H](N3CCCOCC3)C[C@@H]21` [Compound 182*, 4-((1R,3s,5S,6r)-6-(1-isopropyl-3-(4-(trifluoromethyl)phenyl)-1H-pyrazol-5-yl)bicyclo[3.1.0]hexan-3-yl)-1,4-oxazepane], the EC50 in assay [1] stood at 18.5 nM; in the assay with EpiSC-derived OPCs it was 36.9 nM. Moreover, the Ki in assay [2] is 15.8 nM.

Take `CC(C)n1nc(-c2ccc(F)cc2)cc1[C@H]1[C@@H]2C[C@H](N3CCCOCC3)C[C@@H]21` [Compound 183*, 4-((1R,3r,5S,6r)-6-(3-(4-Fluorophenyl)-1-isopropyl-1H-pyrazol-5-yl)bicyclo[3.1.0]hexan-3-yl)-1,4-oxazepane]: the EC50 was determined as 8.6 nM in assay [1] and 13.1 nM in the assay with EpiSC-derived OPCs. Moreover, the Ki in assay [2] was 10.6 nM.

As for `CC(C)n1nc(-c2ccc(F)cc2)cc1[C@H]1[C@@H]2C[C@@H](N3CCCOCC3)C[C@@H]21` [Compound 184*, 4-((1R,3s,5S,6r)-6-(3-(4-fluorophenyl)-1-isopropyl-1H-pyrazol-5-yl)bicyclo[3.1.0]hexan-3-yl)-1,4-oxazepane], the values for the EC50 (in assay [1]; in the assay with EpiSC-derived OPCs) were 27.1 nM and 55.9 nM, respectively. In addition, in assay [2], the Ki is 21.3 nM.

Take `CC(C)n1nc(-c2ccc(OC(F)(F)F)cc2)cc1[C@H]1[C@@H]2C[C@H](N3CCCOCC3)C[C@@H]21` [Compound 185*, 4-((1R,3r,5S,6r)-6-(1-Isopropyl-3-(4-(trifluoromethoxy)phenyl)-1H-pyrazol-5-yl)bicyclo[3.1.0]hexan-3-yl)-1,4-oxazepane]: the figures for the EC50 (in assay [1]; in the assay on EpiSC-derived OPCs) were 7.66 nM and 11.3 nM, respectively. Besides, the Ki in assay [2] is 12 nM.

`CC(C)n1nc(-c2ccc(OC(F)(F)F)cc2)cc1[C@H]1[C@@H]2C[C@@H](N3CCCOCC3)C[C@@H]21` [Compound 186*, 4-((1R,3s,5S,6r)-6-(1-isopropyl-3-(4-(trifluoromethoxy)phenyl)-1H-pyrazol-5-yl)bicyclo[3.1.0]hexan-3-yl)-1,4-oxazepane]: the EC50 in assay [1] amounted to 56.7 nM; in the assay with EpiSC-derived OPCs, 431 nM. For the same compound, the Ki in assay [2] is 20.6 nM.

On to `CC(C)n1nc(-c2cncc(F)c2)cc1[C@H]1[C@@H]2C[C@H](N3CCCOCC3)C[C@@H]21` [Compound 187*, 4-((1R,3r,5S,6r)-6-(3-(5-Fluoropyridin-3-yl)-1-isopropyl-1H-pyrazol-5-yl)bicyclo[3.1.0]hexan-3-yl)-1,4-oxazepane], for which the EC50 in assay [1] is 7.75 nM; in the assay on EpiSC-derived OPCs, 37.3 nM. The Ki in assay [2] is 20.3 nM.

As for `CC(C)n1nc(-c2cncc(F)c2)cc1[C@H]1[C@@H]2C[C@@H](N3CCCOCC3)C[C@@H]21` [Compound 188*, 4-((1R,3s,5S,6r)-6-(3-(5-fluoropyridin-3-yl)-1-isopropyl-1H-pyrazol-5-yl)bicyclo[3.1.0]hexan-3-yl)-1,4-oxazepane], the EC50 in assay [1] was 122 nM; in the assay with EpiSC-derived OPCs, 549 nM. In addition, the Ki in assay [2] is 169 nM.

With `CC(C)n1nc(-c2cccc(OC(F)(F)F)c2)cc1[C@H]1[C@@H]2C[C@H](N3CCCOCC3)C[C@@H]21` [Compound 189*, 4-((1R,3r,5S,6r)-6-(1-isopropyl-3-(3-(trifluoromethoxy)phenyl)-1H-pyrazol-5-yl)bicyclo[3.1.0]hexan-3-yl)-1,4-oxazepane], the EC50 in assay [1] was 3.43 nM; in the assay with EpiSC-derived OPCs, 3.32 nM. Further, the Ki in assay [2] is 9.14 nM.

Regarding `CC(C)n1nc(-c2cccc(OC(F)(F)F)c2)cc1[C@H]1[C@@H]2C[C@@H](N3CCCOCC3)C[C@@H]21` [Compound 190*, 4-((1R,3s,5S,6r)-6-(1-isopropyl-3-(3-(trifluoromethoxy)phenyl)-1H-pyrazol-5-yl)bicyclo[3.1.0]hexan-3-yl)-1,4-oxazepane], the EC50 in assay [1] came out at 10.9 nM; in the assay on EpiSC-derived OPCs, 25.1 nM. For the same compound, in assay [2], the Ki was 9.63 nM.

Consider `CC(C)n1nc(-c2cccc(C#N)c2)cc1[C@H]1[C@@H]2C[C@H](N3CCCOCC3)C[C@@H]21` [Compound 191*, 3-(5-((1R,3r,5S,6r)-3-(1,4-Oxazepan-4-yl)bicyclo[3.1.0]hexan-6-yl)-1-isopropyl-1H-pyrazol-3-yl)benzonitrile], for which the results for the EC50 (in assay [1]; in the assay with EpiSC-derived OPCs) were 2.66 nM and 8.52 nM, respectively. In assay [2], the Ki is 8.04 nM.

In the case of `CC(C)n1nc(-c2cccc(C#N)c2)cc1[C@H]1[C@@H]2C[C@@H](N3CCCOCC3)C[C@@H]21` [Compound 192*, 3-(5-((1R,3s,5S,6r)-3-(1,4-oxazepan-4-yl)bicyclo[3.1.0]hexan-6-yl)-1-isopropyl-1H-pyrazol-3-yl)benzonitrile], the EC50 is 22.7 nM in assay [1] and 61.6 nM in the assay with EpiSC-derived OPCs. Further, the Ki in assay [2] was 12.6 nM.

Turning to `CC(C)n1nc(-c2ccccc2F)cc1[C@H]1[C@@H]2C[C@H](N3CCCOCC3)C[C@@H]21` [Compound 193*, 4-((1R,3r,5S,6r)-6-(3-(2-Fluorophenyl)-1-isopropyl-1H-pyrazol-5-yl)bicyclo[3.1.0]hexan-3-yl)-1,4-oxazepane], the EC50 in assay [1] was 5.41 nM; in the assay with EpiSC-derived OPCs, 7.12 nM. In assay [2], the Ki was 7.29 nM.

Regarding `CC(C)n1nc(-c2ccccc2F)cc1[C@H]1[C@@H]2C[C@@H](N3CCCOCC3)C[C@@H]21` [Compound 194*, 4-((1R,3s,5S,6r)-6-(3-(2-fluorophenyl)-1-isopropyl-1H-pyrazol-5-yl)bicyclo[3.1.0]hexan-3-yl)-1,4-oxazepane], the EC50 in assay [1] is 42.3 nM; in the assay with EpiSC-derived OPCs, 131 nM. The Ki in assay [2] is 13.1 nM.

The values above are taken from patent US20260008775A1, “AZOLE MODULATORS OF CHOLESTEROL BIOSYNTHESIS AND THEIR USE FOR PROMOTING REMYELINATION” (GENENTECH, INC., priority 2022, published 2026).
